Data: patent US10392371B2, “Compounds useful as modulators of TRPM8” (Senomyx, Inc., priority 2015, dated 2019)

What was measured:
[1] = Cool Line Scale Test (sensory study, cooling intensity vs 45 μM WS-3); type: in vivo, human; settings: for Sensory Results (cooling intensity relative to 45 μM WS-3): 5 μM compound vs 45 μM WS-3, Low Sodium Buffer pH ~7.1, 0.1% ethanol, 15 point line scale; for lingering effect: sensory study
Protocol: A typical sensory study is described below followed by Table 5 summarizing sensory results of Compounds 101-105.
All samples made with Low Sodium Buffer (LSB) pH ˜7.1 and contain 0.1% ethanol.
Compounds are rated on a 15 point line scale where 45 μM WS-3 (N-Ethyl-p-menthane-3-carboxamide) is ranked as a 5 in cool intensity. In most cases, the compounds are tested to determine at what concentration the cooling intensity is equivalent to 45 μM WS-3. In each test, the panelist is presented with a 0 μM control sample, a 45 μM WS-3 control sample and the experimental compound sample and asked to rate the cooling intensity of each sample.

hTRPM8 = biological target: T1, hTRPM8 (Homo sapiens, UniProt Q7Z2W7); assay: hTRPM8 agonist assay in mammalian cell line stably expressing hTRPM8; type: cell-based; settings: EC50 of compound compared to that of WS-3, reported as a ratio
T1 construct: expressed in transfected cells
Protocol: A mammalian cell line derivative which stably expresses hTRPM8 was used in biological assays in association with testing the present compounds with cool-tasting or -feeling properties (Servant et al. US 2007/0259354 A1 and references cited therein). Typical compound concentrations tested were 100 μM, 30 μM, 10 μM, 3.3 μM, 1.1 μM, 0.37 μM, 0.12 μM, 0.04 μM, 0.01 μM and more dilutions for very potent compounds. The present compounds have shown strong activity as agonists of hTRPM8. […] For the sake of comparison, the EC50 of Comparative Compound 1, which was previously disclosed in U.S. 2013/0324557 A1 and has the structure

[2] = Sensory evaluation by quantitative descriptive evaluation technique (ten trained panelists, 15-point linescale); type: in vivo, human
Protocol: Compounds 102-105 and Comparative Compound 1 were evaluated using a quantitative descriptive evaluation technique. Ten panelists participated in the study. These panelists previously underwent extensive training in the use of standardized vocabulary to describe the appearance, aroma, flavor, and texture of a variety of products. Data collection was conducted over a period of seven days, with panelists evaluating two samples on each day of testing. Two evaluations were obtained from each panelist for each compound yielding a total of 20 evaluations per compound. During the data collection, the panelists were give a list of attributes and instructed to indicate the intensity of each attribute by indicating the intensity on a 15-point linescale. The intensity was evaluated for the following time periods: in-mouth, after expectoration, and 30 seconds, 1, 2, 5, 10, 15, 30, 45, and 60 minutes into the aftertaste period.
Compounds 102, 103, and 105 were prepared as 5 μM solutions and Compound 104 and Comparative Compound 1 were prepared in 3 μM solutions. 15 mL aliqouts of the test solutions were administered to Panelists in 1 oz. plastic cups coded with a random 3-digit code. The Panelists refrained from brushing their teeth, eating, and drinking one hour before each evaluation. Mean intensities were calculated based on the Panelists responses for each sensory characteristic. The sensory characteristics evaluated were bitter, icy cool in mouth, numbing, cooling breathe in, total burning, alcohol burning, pepperine/capsaicin, tingling, and total trigeminal impact. For each sensory characteristic, the scale of the intensity was designed to cover a range encompassing the universe of products having the indicated sensory characteristic.
After mean intensities for each attribute were calculated, statistical significance for each mean intensity was calculated using analysis of variance (ANOVA) followed by Duncan's multiple comparison test at an alpha level of 5%. […] In the results provided herein, the Duncan's levels are reported as Levels A, B, and C.
Panelists were asked to assess the intensity of both capsaicin-like burning and Alcohol-like Burning sensations for Compounds 102 and 103 and Comparative Compound 1. Capsaicin-like burning is the sensation of warming or burning in the mouth, reminiscent of black pepper or hot sauce while alcohol-like burning is the sensation of warming or burning in the mouth, reminiscent of an alcohol burn. The combination of the intensity of these sensations was used to assess the total burning for the tested compounds. The average total burning after expectoration to 60 minutes was lower for both 5 μM Compound 102 and 5 μM Compound 103 as compared to 3 μM Comparative Compound 1.
The total intensity of trigeminal nerve feeling factors on the soft tissues of the mouth, including numbing, cooling (without breathing in), irritation, warming, burning, and tingling were determined for Compounds 102 and 103 and Comparative Compound 1. The average total trigeminal impact after expectoration to 60 minutes was lower for both 5 μM Compound 102 and 5 μM Compound 103 as compared to 3 μM Comparative Compound 1.
Icy cool in mouth is the sensation of coolness of the mouth, perceived with the mouth closed, not related to the temperature of the sample. Panelists were asked to assess the sensation of icy cool in mouth for Compound 104 and Compound 105 from the time immediately after expectoration of the sample through 60 minutes after expectoration. The average Icy Cool after expectoration to 60 minutes was higher for both 5 μM Compound 105 and 3 μM Compound 104 as compared to 3 μM Comparative Compound 1.
Cooling Breath In is the sensation of coolness of the mouth, when inhaling through the mouth, not related to the temperature of the sample. […]

T1 sequence (Q7Z2W7 whole entry): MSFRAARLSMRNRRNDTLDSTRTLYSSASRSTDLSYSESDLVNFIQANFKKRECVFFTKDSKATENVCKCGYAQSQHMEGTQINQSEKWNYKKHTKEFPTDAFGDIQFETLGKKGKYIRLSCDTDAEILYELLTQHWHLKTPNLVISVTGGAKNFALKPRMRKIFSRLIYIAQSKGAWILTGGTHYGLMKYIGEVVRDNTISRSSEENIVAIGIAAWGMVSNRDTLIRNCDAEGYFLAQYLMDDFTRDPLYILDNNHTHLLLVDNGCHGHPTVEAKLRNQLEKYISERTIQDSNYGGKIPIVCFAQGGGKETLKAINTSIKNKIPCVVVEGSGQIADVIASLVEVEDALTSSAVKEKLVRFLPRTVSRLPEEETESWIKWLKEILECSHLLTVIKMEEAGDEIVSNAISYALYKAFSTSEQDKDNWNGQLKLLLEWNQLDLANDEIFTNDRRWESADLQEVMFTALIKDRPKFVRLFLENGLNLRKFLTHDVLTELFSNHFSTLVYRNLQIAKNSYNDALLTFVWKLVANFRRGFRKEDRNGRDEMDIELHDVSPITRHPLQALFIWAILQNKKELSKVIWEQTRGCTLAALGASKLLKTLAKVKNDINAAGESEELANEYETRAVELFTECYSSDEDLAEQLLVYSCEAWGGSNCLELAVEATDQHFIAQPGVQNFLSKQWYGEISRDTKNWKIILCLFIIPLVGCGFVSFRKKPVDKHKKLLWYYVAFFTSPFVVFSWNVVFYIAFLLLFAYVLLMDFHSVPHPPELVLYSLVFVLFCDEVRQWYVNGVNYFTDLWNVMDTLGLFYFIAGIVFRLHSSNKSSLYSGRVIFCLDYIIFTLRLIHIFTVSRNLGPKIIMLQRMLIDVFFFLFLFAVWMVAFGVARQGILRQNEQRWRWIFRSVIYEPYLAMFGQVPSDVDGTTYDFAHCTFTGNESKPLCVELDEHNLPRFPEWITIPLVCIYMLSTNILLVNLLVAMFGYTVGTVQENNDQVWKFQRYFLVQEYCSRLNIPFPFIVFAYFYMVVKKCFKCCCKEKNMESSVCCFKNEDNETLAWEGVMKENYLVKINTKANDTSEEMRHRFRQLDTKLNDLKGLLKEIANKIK

With `COc1ccc(OCC(=O)N(Cc2cccs2)c2cc[nH]n2)cc1` [Compound 103, 2-(4-methoxyphenoxy)-N-(1H-pyrazol-3-yl)-N-(thiophen-2-ylmethyl)acetamide] the “Sensory Results (cooling intensity relative to 45 μM WS-3)” value [1] was “equivalent to the cooling”, the lingering effect [1] was “unexpected lingering effect” and the “EC50 WS-3 Ratio” value (hTRPM8) was 1050.9. For the same compound, the “Average Numbing (after expectoration to 60 minutes)” value (“Average Numbing” for short) ([2]; 5 μM solution) was 1.3, the “Average Tingling (after expectoration to 60 minutes)” value (“Average Tingling” below) ([2]; 5 μM solution) was 0.6 and the “Average Total Burning (after expectoration to 60 minutes)” value (“Average Total Burning” below) ([2]; 5 μM solution) was 0.9. The “Average Total Trigeminal Impact (after expectoration to 60 minutes)” value (“Average Total Trigeminal Impact” for short) ([2]; 5 μM solution) was 2.3 and the “Average Bitterness at 2 Minutes After Expectoration (Bitterness Rating)” value (“Average Bitterness” below) ([2]; 5 μM solution) was 0.90.
For `CCc1ccc(OCC(=O)N(Cc2cccs2)c2cc[nH]n2)cc1` [Compound 104, 2-(4-ethylphenoxy)-N-(1H-pyrazol-3-yl)-N-(thiophen-2-ylmethyl)acetamide], the “Sensory Results (cooling intensity relative to 45 μM WS-3)” value [1] was “significantly more cooling”, the lingering effect [1] was “unexpected lingering effect” and the “EC50 WS-3 Ratio” value (hTRPM8) was 1189444. For the same compound, the “Average Cooling Breath In (after expectoration to 60 minutes)” value ([2]; 3 μM solution) was 2.7, the “Average Icy Cool In Mouth (after expectoration to 60 minutes)” value ([2]; 3 μM solution) was 2.3 and the “Average Icy Cool In Mouth and Immediately After Expectoration” value ([2]; 3 μM solution) was 2.0. The “Average Bitterness” value ([2]; 3 μM solution) was 0.77.
In the case of `Cc1ccc(OCC(=O)N(Cc2cccs2)c2ccn[nH]2)cc1` [Comparative Compound 1, reference compound], the “EC50 WS-3 Ratio” value (hTRPM8) is reported as 28648, the “Average Cooling Breath In (after expectoration to 60 minutes)” value ([2]; 3 μM solution) is reported as 2.5 and the “Average Icy Cool In Mouth (after expectoration to 60 minutes)” value ([2]; 3 μM solution) is reported as 2.1. For the same compound, the “Average Icy Cool In Mouth and Immediately After Expectoration” value ([2]; 3 μM solution) was 1.8, the “Average Numbing” value ([2]; 3 μM solution) was 1.5 and the “Average Tingling” value ([2]; 3 μM solution) was 0.7. The “Average Total Burning” value ([2]; 3 μM solution) was 1.1, the “Average Total Trigeminal Impact” value ([2]; 3 μM solution) was 2.8 and the “Average Bitterness” value ([2]; 3 μM solution) was 1.10.
With `O=C(COc1ccc(F)cc1)N(Cc1cccs1)c1cc[nH]n1` [Compound 102, 2-(4-flourophenoxy)-N-(1H-pyrazol-5-yl)-N-(thiophen-2-ylmethyl)acetamide] the “EC50 WS-3 Ratio” value (hTRPM8) was 495.4, the “Average Numbing” value ([2]; 5 μM solution) was 1.4 and the “Average Tingling” value ([2]; 5 μM solution) was 0.6. The “Average Total Burning” value ([2]; 5 μM solution) was 0.9, the “Average Total Trigeminal Impact” value ([2]; 5 μM solution) was 2.4 and the “Average Bitterness” value ([2]; 5 μM solution) was 0.86.
With `Cc1ccc(OCC(=O)N(Cc2cccs2)c2cc[nH]n2)cc1C` [Compound 105, 2-(3,4-dimethylphenoxy)-N-(1H-pyrazol-3-yl)-N-(thiophen-2-ylmethyl)acetamide] the lingering effect [1] was “unexpected lingering effect”, the “EC50 WS-3 Ratio” value (hTRPM8) was 12169.3 and the “Average Cooling Breath In (after expectoration to 60 minutes)” value ([2]; 5 μM solution) was 2.7. The “Average Icy Cool In Mouth (after expectoration to 60 minutes)” value ([2]; 5 μM solution) was 2.3, the “Average Icy Cool In Mouth and Immediately After Expectoration” value ([2]; 5 μM solution) was 1.9 and the “Average Bitterness” value ([2]; 5 μM solution) was 0.82.
With `Cc1cccc(OCC(=O)N(Cc2cccs2)c2cc[nH]n2)c1` [Compound 101, N-(1H-pyrazol-3-yl)-N-(thiophen-2-ylmethyl)-2-(m-tolyloxy)acetamide] the “EC50 WS-3 Ratio” value (hTRPM8) was 696.3.
